Laboratory results taken from PubChem BioAssay (NCI).
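Where inhibition never reached the appropriate level, the endpoint shown equals the highest concentration tested. Otherwise, values were interpolated linearly from a five-concentration, 48-hour dose response in 96-well plates. The concentration for 50% growth inhibition is given as GI50. TGI is the concentration that stops growth completely.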

What was measured:
Assay in all cases: NCI anticancer screen, dose series, 48 h
PC-3 prostate = tested on: PC-3 prostate
786-0 renal = tested on: 786-0 renal
NCI-H460 lung = tested on: NCI-H460 lung
OVCAR-4 ovarian = tested on: OVCAR-4 ovarian
SK-MEL-28 melanoma = tested on: SK-MEL-28 melanoma
SNB-19 CNS = tested on: SNB-19 CNS
SN12C renal = tested on: SN12C renal
SW-620 colon = tested on: SW-620 colon
KM12 colon = tested on: KM12 colon
SNB-75 CNS = tested on: SNB-75 CNS
CAKI-1 renal = tested on: CAKI-1 renal
U251 CNS = tested on: U251 CNS
DU-145 prostate = tested on: DU-145 prostate
NCI/ADR-RES ovarian = tested on: NCI/ADR-RES ovarian
HL-60(TB) leukemia = tested on: HL-60(TB) leukemia
TK-10 renal = tested on: TK-10 renal
SK-MEL-5 melanoma = tested on: SK-MEL-5 melanoma
T-47D breast = tested on: T-47D breast
UO-31 renal = tested on: UO-31 renal
MDA-MB-231 breast = tested on: MDA-MB-231 breast
OVCAR-5 ovarian = tested on: OVCAR-5 ovarian
COLO 205 colon = tested on: COLO 205 colon
SF-268 CNS = tested on: SF-268 CNS
IGROV1 ovarian = tested on: IGROV1 ovarian
SF-539 CNS = tested on: SF-539 CNS
MOLT-4 leukemia = tested on: MOLT-4 leukemia
MALME-3M melanoma = tested on: MALME-3M melanoma
HCT-116 colon = tested on: HCT-116 colon
HOP-62 NSCLC = tested on: HOP-62 NSCLC
CCRF-CEM leukemia = tested on: CCRF-CEM leukemia
A549 NSCLC = tested on: A549 NSCLC
NCI-H23 lung = tested on: NCI-H23 lung
UACC-257 melanoma = tested on: UACC-257 melanoma
UACC-62 melanoma = tested on: UACC-62 melanoma
EKVX NSCLC = tested on: EKVX NSCLC
MCF7 breast = tested on: MCF7 breast
LOX IMVI melanoma = tested on: LOX IMVI melanoma
M14 melanoma = tested on: M14 melanoma
SK-OV-3 ovarian = tested on: SK-OV-3 ovarian
BT-549 breast = tested on: BT-549 breast
SF-295 CNS = tested on: SF-295 CNS
HCT-15 colon = tested on: HCT-15 colon
HT29 colon = tested on: HT29 colon
NCI-H522 lung = tested on: NCI-H522 lung
ACHN renal = tested on: ACHN renal
MDA-MB-435 = tested on: MDA-MB-435
RXF 393 renal = tested on: RXF 393 renal
OVCAR-8 ovarian = tested on: OVCAR-8 ovarian
RPMI-8226 leukemia = tested on: RPMI-8226 leukemia
SR leukemia = tested on: SR leukemia
HS 578T breast = tested on: HS 578T breast
NCI-H226 lung = tested on: NCI-H226 lung
HCC-2998 colon = tested on: HCC-2998 colon
K-562 leukemia = tested on: K-562 leukemia
A498 renal = tested on: A498 renal
OVCAR-3 ovarian = tested on: OVCAR-3 ovarian
HOP-92 NSCLC = tested on: HOP-92 NSCLC
SK-MEL-2 melanoma = tested on: SK-MEL-2 melanoma

For `O=C(Nc1ccc(Oc2ccc(NC(=O)Nc3ccccc3Cl)cc2)cc1)Nc1ccccc1Cl`, the GI50 (PC-3 prostate) was 2.11 µM, the GI50 (786-0 renal) was 22.6 µM and the TGI (786-0 renal) was greater than 69.2 µM. For the same compound, the GI50 (NCI-H460 lung) was 2.49 µM, the TGI (NCI-H460 lung) was greater than 100 µM and the GI50 (OVCAR-4 ovarian) was 2.71 µM. For the same compound, the TGI (OVCAR-4 ovarian) was 24.4 µM, the GI50 (SK-MEL-28 melanoma) was 3.54 µM and the TGI (SK-MEL-28 melanoma) was greater than 100 µM. For the same compound, the GI50 (SNB-19 CNS) was 17 µM, the TGI (SNB-19 CNS) was 43.8 µM and the GI50 (SN12C renal) was 7.55 µM. It also gave a TGI (SN12C renal) greater than 100 µM, a GI50 (SW-620 colon) of 10.6 µM and a TGI (SW-620 colon) greater than 100 µM. It also gave a GI50 (KM12 colon) greater than 100 µM, a TGI (KM12 colon) greater than 100 µM and a GI50 (SNB-75 CNS) of 12.2 µM. For the same compound, the TGI (SNB-75 CNS) was 37.3 µM, the GI50 (CAKI-1 renal) was greater than 31.9 µM and the TGI (CAKI-1 renal) was greater than 88.2 µM. The GI50 (U251 CNS) was 1.71 µM, the TGI (U251 CNS) was 20.5 µM and the GI50 (DU-145 prostate) was 4.53 µM. It also gave a TGI (DU-145 prostate) greater than 100 µM, a GI50 (NCI/ADR-RES ovarian) of 10.8 µM and a TGI (NCI/ADR-RES ovarian) greater than 63.8 µM. The GI50 (HL-60(TB) leukemia) was 14.8 µM, the TGI (HL-60(TB) leukemia) was 32.4 µM and the GI50 (TK-10 renal) was 4.72 µM. It also gave a TGI (TK-10 renal) of 45.1 µM, a TGI (SK-MEL-5 melanoma) greater than 100 µM and a GI50 (T-47D breast) of 6.98 µM. For the same compound, the TGI (T-47D breast) was greater than 90.6 µM, the GI50 (UO-31 renal) was 34.8 µM and the TGI (UO-31 renal) was greater than 95.8 µM. It also gave a GI50 (MDA-MB-231 breast) of 9.4 µM, a TGI (MDA-MB-231 breast) of 29.6 µM and a GI50 (OVCAR-5 ovarian) of 27.6 µM. For the same compound, the TGI (OVCAR-5 ovarian) was greater than 100 µM, the GI50 (COLO 205 colon) was 15.7 µM and the TGI (COLO 205 colon) was greater than 100 µM. It also gave a GI50 (SF-268 CNS) of 8.11 µM, a TGI (SF-268 CNS) of 55.1 µM and a GI50 (IGROV1 ovarian) of 3.57 µM. The TGI (IGROV1 ovarian) was 14.8 µM, the GI50 (SF-539 CNS) was 6 µM and the TGI (SF-539 CNS) was 22.1 µM. The GI50 (MOLT-4 leukemia) was 12.1 µM, the TGI (MOLT-4 leukemia) was 32.9 µM and the GI50 (MALME-3M melanoma) was 15.4 µM. The TGI (MALME-3M melanoma) was greater than 96 µM, the GI50 (HCT-116 colon) was 1.59 µM and the TGI (HCT-116 colon) was greater than 100 µM. For the same compound, the GI50 (HOP-62 NSCLC) was 12.4 µM, the TGI (HOP-62 NSCLC) was 34.1 µM and the GI50 (CCRF-CEM leukemia) was 4.72 µM. For the same compound, the TGI (CCRF-CEM leukemia) was 28.8 µM, the GI50 (A549 NSCLC) was 2.69 µM and the TGI (A549 NSCLC) was greater than 26.1 µM. The GI50 (NCI-H23 lung) was 3.61 µM, the TGI (NCI-H23 lung) was 18.5 µM and the TGI (UACC-257 melanoma) was greater than 28.2 µM. It also gave a GI50 (UACC-62 melanoma) of 7.42 µM, a TGI (UACC-62 melanoma) greater than 62 µM and a GI50 (EKVX NSCLC) of 16.4 µM. The TGI (EKVX NSCLC) was greater than 100 µM, the GI50 (MCF7 breast) was 8.54 µM and the TGI (MCF7 breast) was greater than 100 µM. It also gave a GI50 (LOX IMVI melanoma) of 10.8 µM, a TGI (LOX IMVI melanoma) greater than 100 µM and a GI50 (M14 melanoma) greater than 44.6 µM. It also gave a TGI (M14 melanoma) greater than 100 µM, a GI50 (SK-OV-3 ovarian) of 9.33 µM and a TGI (SK-OV-3 ovarian) of 38.1 µM. It also gave a GI50 (BT-549 breast) of 5.06 µM, a TGI (BT-549 breast) of 25 µM and a GI50 (SF-295 CNS) of 6.81 µM. For the same compound, the TGI (SF-295 CNS) was 33.9 µM, the GI50 (HCT-15 colon) was 0.677 µM and the TGI (HCT-15 colon) was greater than 100 µM. It also gave a GI50 (HT29 colon) greater than 21.4 µM, a TGI (HT29 colon) greater than 100 µM and a GI50 (NCI-H522 lung) of 7.91 µM. It also gave a TGI (NCI-H522 lung) of 42.6 µM, a GI50 (ACHN renal) greater than 22.2 µM and a TGI (ACHN renal) greater than 100 µM. The GI50 (MDA-MB-435) was greater than 100 µM, the TGI (MDA-MB-435) was greater than 100 µM and the GI50 (RXF 393 renal) was 2.99 µM. The TGI (RXF 393 renal) was 11.4 µM, the GI50 (OVCAR-8 ovarian) was 6.83 µM and the TGI (OVCAR-8 ovarian) was 23.6 µM. For the same compound, the GI50 (RPMI-8226 leukemia) was 1.19 µM, the TGI (RPMI-8226 leukemia) was 15.7 µM and the GI50 (SR leukemia) was 0.453 µM. The TGI (SR leukemia) was 13.3 µM, the GI50 (HS 578T breast) was 17.8 µM and the TGI (HS 578T breast) was greater than 100 µM. It also gave a GI50 (NCI-H226 lung) of 15.6 µM, a TGI (NCI-H226 lung) of 49 µM and a GI50 (HCC-2998 colon) of 8.47 µM. It also gave a TGI (HCC-2998 colon) greater than 51.7 µM, a GI50 (K-562 leukemia) of 2.63 µM and a TGI (K-562 leukemia) greater than 40.1 µM. The GI50 (A498 renal) was 22.2 µM, the TGI (A498 renal) was 64.3 µM and the GI50 (OVCAR-3 ovarian) was 11.3 µM. It also gave a TGI (OVCAR-3 ovarian) greater than 55 µM, a GI50 (HOP-92 NSCLC) of 1.34 µM and a TGI (HOP-92 NSCLC) of 9.53 µM. The GI50 (SK-MEL-2 melanoma) was 8.17 µM and the TGI (SK-MEL-2 melanoma) was greater than 20.4 µM.
